Measured values published in PMC11201061, “Mechanistic Study of Antimicrobial Effectiveness of Cyclic Amphipathic Peptide [R4W4] against Methicillin-Resistant Staphylococcus aureus Clinical Isolates” (Antibiotics, 2024).
Converted amounts (≈) assume the structure as drawn. Counter-ions that a name gives are not always drawn. Like-named read-outs stand apart in the source and are kept apart here. Where a SMILES comes first, the peptide text is derived from it.

Tests used:
[1] = test system: MRSA USA300; assay: Checkered board synergy assay with gentamicin; type: cell-based, Staphylococcus aureus
Description: (§1) An amount of 100 µL of [R4W4] peptide test solution at a final concentration of 512 µg/mL was added to each well A-G column 1 in plate A using a multi-channel pipette. A 50 µL MH Broth was added to micro-plate well A-G columns 2–9. Using a multi-channel pipette, a two-fold serial dilution was performed by removing 50 µL solution from column 1 and was added to column 2 with thorough mixing. The micro-pipette was discarded after each transfer. The last portion after column 9 was discarded. In another microplate, 100 µL MHB was added to well B-G columns 1–11 using a multi-channel pipette. A 200 µL gentamicin test solution 512 µg/mL was added to row A, columns 1–11. A two-fold serial dilution was performed by removing 100 µL from rows A to B. The last portion was discarded. Using eight multi-channel pipettes, 50 µL of gentamicin test solution was transferred in the ordinate column A-G row 1 to the first microplate. The plate was incubated at 37 °C for 18–24 h. The fractional inhibitory concentration (FIC) of the antibacterial agents and the fractional inhibitory concentration index (FICI) of the two antibacterial agents were determined to evaluate the synergistic interaction. The FICI was interpreted as follows: FICI ≤ 0.5, synergy; 0.5 < FICI ≤ 1, partial synergy; 1 ≤ FICI < 4, additive effect or indifference; 4 ≤ FICI antagonism and calculated from the mean values from multiple experiments.

[2] = test system: E. coli 25922; assay: Checkered board synergy assay with gentamicin; type: cell-based, Escherichia coli
Description: as §1

[3] = test system: MRSA USA300; assay: microbe, parasite or virus in culture; settings: for MIC against index isolate (no serial passage): MRSA USA300 index strain
Description: MRSA USA300 bacteria from −80 °C freezer stock were cultured on an LB agar plate overnight. One bacteria colony was added to a 6 mL fresh MHB with constant shaking at 200 rpm at 37 °C. The bacteria were transferred daily by inoculating 10 μL of stationary-phase culture into […] of MHB in a 1 mL cap-clipped Eppendorf tube. Then, 20 μL of bacteria aliquot was added to […] of MHB broth, with or without [R4W4], at a final concentration of the MIC overnight in an […] at 37 °C for five transfers. […] […] Experiments were performed in triplicates. Every time we increased the concentration of [R4W4], a sample of the induction generation was inoculated into 20% (vol/vol) glycerol and stored at −70 °C. The final MIC values of [R4W4], vancomycin, and levofloxacin were determined by modified microbroth dilution assay.

[4] = test system: MRSA USA300; assay: Membrane depolarization assay with DisC3(5); type: cell-based, Staphylococcus aureus
Description: Buffer A (5 mM HEPE and 5 mM glucose) and Buffer B (5 mM HEPE, 5 mM glucose, and 0.2 mM EDTA) solutions were prepared and filtered using 0.2 μm filters. Bacteria strains (MRSA and E. coli) from a −80 °C freezer were inoculated on an agar plate overnight. Two to three colonies of each bacteria strain were inoculated in 8 mL Cation-Adjusted Muller-Hinton Broth (CAMHB) and allowed to grow overnight. The overnight grown MRSA or E. coli bacteria was diluted with a fresh CAMHB (1:100) and incubated at 37 °C for 5 h with shaking at 220 rpm. The resulting bacteria cells at the growth phase were centrifuged at 3700× g at 4 °C for 10 min. The bacteria pellets were washed three times with buffer A and then resuspended in buffer A to an OD600nm of 0.05.
On the other hand, E. coli was resuspended in buffer B to an OD600nm of 0.05 to facilitate fluorescence dye DSC5 uptake. Then, 20 mL of each bacteria suspension was mixed with 10 μL of 100 μM dye in a dark place for 45 min. After incubation, potassium chloride was added to the two bacteria suspensions to a final concentration. […] The fluorescence intensity was measured at excitation and emission wavelengths of 622 nm and 670 nm, respectively.

[5] = test system: MRSA USA300; assay: microbe, parasite or virus in culture; settings: for MIC: Staphylococcus aureus
Description: The interaction of [R4W4], melittin, and vancomycin with LTA in the presence of MRSA was determined using a microbroth dilution assay. Two-fold serial dilution was used to achieve a 100 μL final concentration of the antibacterial agents in a 96 microplate well. A 360 μL S. aureus LTA (Sigma Aldrich stock 5 mg/mL) was added to 17.64 mL MHB containing MRSA (5 x 10^5 CFU/mL) to achieve the final concentration of S. aureus LTA 100 μg/mL. Then, 100 μL aliquots of MHB (MRSA (5 × 10^5 CFU/mL) and 100 μg/mL S. aureus LTA) were added to the 96 microtiter wells containing the antibacterial agents. The microplate was incubated overnight at 37 °C to obtain the MICs. Controls were bacteria grown in the presence of LTA alone and in MHB alone.

[6] = test system: Enterococcus faecium (VRE); type: cell-based; settings: urine isolate
Description: (§2) To determine whether the antibacterial activity of [R4W4] is bacteriostatic or bactericidal against clinical isolates of multidrug-resistant bacterial isolates, MIC and MBC were determined using the microbroth dilution method. Bacteriostatic activity was defined as a ratio of the MBC/MIC greater than four and bactericidal activity as MBC/MIC ratio ≤ 4 [33]. We added aliquots of test samples (256 μg/mL concentration of [R4W4] or vancomycin as a control prepared in TSB) to the first well of microplates. MHB media was added to the remaining wells. Two-fold serial dilutions were performed, starting with the highest drug concentration in well 1, and the dilution process continued. A bacterial aliquot of 1/150 dilution was prepared with a 0.5 McFarland standard solution from an overnight culture of the tested bacteria isolate. Bacteria were added to the microplate and placed into wells with the drug dilutions. The microplates were incubated overnight for 24 h at 37 °C. [R4W4] was synthesized and purified, as reported earlier.

[7] = test system: bacterial isolates (nine MRSA, B. subtilis, C. difficile, VRE); type: cell-based; settings: for bacteriostatic or bactericidal (Pankey's definition, MBC/MIC ≤ 4 bactericidal): all tested bacterial isolates; for MBC increase over MIC values: all the strains tested
Description: as §2

[8] = 25% fresh human serum in RPMI buffer, 37 °C, peptide 100 µg/mL, 20 h; LC-MS; three independent experiments
Description: Fresh human serum (4 mL) was centrifuged at 12,500× g for 15 min at 4 °C to remove the lipids. A 25% human serum sample was prepared by adding 375 µL of the human serum supernatant to 1125 µL of RPMI buffer. […] The test sample was incubated in a water bath at 37 °C until a predetermined time interval (0, 1, 2, 4, 6, 8.5, 12, and 20 h). At the time intervals, a 150 µL aliquot test sample was added to a 300 µL cocktail solution [ethanol/formic acid (98:2 v/v) mixture] to cease the reaction. The test samples of aliquots were stored on dry ice for 20 min and then centrifuged at 17,200× g for 20 min. For LC-MS analysis, 150 µL supernatant aliquot test samples were stored at −20 °C [54].
A 20 μL aliquot of each sample was analyzed using an Xterra MS C18 column (3.9 × 150 mm, 5 μm, Waters, MA, USA), Nexera XR, and Prominence Shimadzu LC-20AD XR systems (Shimadzu Corporation, Kyoto, Japan) coupled with Shimadzu LC-MS-2020 mass spectrometer (Shimadzu, OR, USA). A two-component LC system consisted of mobile phase A (0.1% formic acid and 10% acetonitrile in water) and mobile phase B (0.1% formic acid and 100% acetonitrile). The flow rate was set at 1.0 mL/min. The Xterra MS C18 column at 40 °C was allowed to equilibrate with 95% mobile phase A. Peptides were loaded to the column and washed for 5 min with 95% mobile Phase A. Analytes were separated using a binary gradient of 0–95% mobile Phase B for 25 min. […] MS was conducted in multiple reaction monitoring and positive electrospray ionization mode. Fourteen concentrations of [R4W4] prepared by two-fold dilution of 200 μg/mL to 0.39 μg/mL were used to prepare calibration curves. The calibration curves were plotted using weighted (1/×2) least-squares linear regression analysis of peptide mass spectra area under the curve (AUC) versus concentration.

[9] = in vitro; settings: human, 100% human plasma
Description: At the end of incubation at each of the time points, acetonitrile was added to the incubation mixture, followed by centrifugation. Samples were analyzed by HPLC-MS/MS, and peak areas were recorded for each analyte. The area of precursor compound remaining after each time point relative to the amount remaining at time zero, expressed as percent, is calculated. Subsequently, the half-life (T1/2) is estimated from the slope of the initial linear range of the logarithmic curve of the compound remaining (%) versus time, assuming first-order kinetics. The plasma stability experiment was performed at Eurofins Inc. (San Diego, CA, USA) [56].

## N=C(N)NCCC[C@@H]1NC(=O)[C@H](CCCNC(=N)N)NC(=O)[C@H](CCCNC(=N)N)NC(=O)[C@H](Cc2c[nH]c3ccccc23)NC(=O)[C@H](Cc2c[nH]c3ccccc23)NC(=O)[C@H](Cc2c[nH]c3ccccc23)NC(=O)[C@H](Cc2c[nH]c3ccccc23)NC(=O)[C@H](CCCNC(=N)N)NC1=O [[R4W4]] (cyclo(RRRRWWWW))
[1]; MRSA USA300, checkered board
  MIC(A+B) ([R4W4] in combination with gentamicin): 1.5 µg/mL
[1]; MRSA USA300, checkered board, 37 °C, 18–24 h, mean values from multiple experiments
  MICA ([R4W4] alone): 6 µg/mL
[1]; MRSA USA300, fractional inhibitory concentration of [R4W4]
  FICA: 0.25
[1]; MRSA, [R4W4] + gentamicin combination versus alone
  reduction in MIC value in combination: 4 fold
[2]; E. coli 25922, checkered board
  MIC(A+B) ([R4W4] in combination with gentamicin): 1.5 µg/mL
[2]; E. coli 25922, checkered board, 37 °C, 18–24 h, mean values from multiple experiments
  MICA ([R4W4] alone): 32 µg/mL
[2]; E. coli 25922, fractional inhibitory concentration of [R4W4]
  FICA: 0.05
[2]; E. coli, [R4W4] + gentamicin combination versus alone
  reduction in MIC value in combination: 2 fold
[3]; MRSA USA300, 35 passages, stepwise increasing concentration
  final [R4W4] concentration at which growth was achieved at the end of serial passage: 32 µg/mL
[3]; MRSA USA300 after serial passage in [R4W4], MIC in duplicate
  MIC against serial passaged [R4W4]-resistant isolate: 16 µg/mL (≈ 11.7 µM)
[3]; MIC in duplicate
  MIC against index isolate (no serial passage): 4 µg/mL (≈ 2.92 µM)
[4]; [R4W4] at 2 × MIC
  DisC3(5) fluorescence (membrane depolarization): fluorescence decreases below that of vancomycin and control
[4]; [R4W4] at 16 × MIC
  DisC3(5) fluorescence (membrane depolarization): enhanced fluorescence signal that surpassed that of nisin
[5]; MRSA USA300, 100 μg/mL S. aureus LTA in MHB, overnight 37 °C, duplicate
  MIC in the presence of LTA: 8 µg/mL
[5]; MRSA USA300, MHB, overnight 37 °C, duplicate
  MIC in the absence of LTA: 8 µg/mL
[6]
  MBC/MIC: 4
[7]; 24 h
  MIC range, MRSA clinical isolates from the blood: 2 to 4 µg/mL
  MIC range, MRSA clinical isolates from the lungs: 16 to 32 µg/mL
[7]
  bacteriostatic or bactericidal (Pankey's definition, MBC/MIC ≤ 4 bactericidal): bactericidal
  MBC increase over MIC values: 2–4 fold
[8]
  remaining [R4W4] (intact peptide): over 70%
[9]
  half-life at 1 µM: ~1.43 h

## CN[C@H](CC(C)C)C(=O)N[C@H]1C(=O)N[C@@H](CC(N)=O)C(=O)N[C@H]2C(=O)N[C@H]3C(=O)N[C@H](C(=O)N[C@H](C(=O)O)c4cc(O)cc(O)c4-c4cc3ccc4O)[C@H](O)c3ccc(c(Cl)c3)Oc3cc2cc(c3O[C@@H]2O[C@H](CO)[C@@H](O)[C@H](O)[C@H]2O[C@H]2C[C@](C)(N)[C@H](O)[C@H](C)O2)Oc2ccc(cc2Cl)[C@H]1O [Vancomycin, Vancomycin Hydrochloride, reference compound]
[3]; MIC in duplicate
  MIC against index isolate (no serial passage): 0.5 µg/mL
[3]; MRSA USA300 passaged versus index strain
  change in MIC after serial passage: 4 folds
[3]; Staphylococcus aureus, MRSA|USA300, read-out: MIC against serial passaged [R4W4]-resistant isolate
  MIC: 4 µg/mL
[4]; controls at 100 µg/mL
  DisC3(5) fluorescence versus control: no significant difference
[5]; read-out: MIC in the absence of LTA
  MIC: 2 µg/mL
[5]; read-out: MIC in the presence of LTA
  MIC: 2 µg/mL
[6]; microbroth dilution, 24 h, 37 °C, averages of triplicates of three different experiments, N/A = not active
  MIC: not active
[7]
  bacteriostatic or bactericidal (Pankey's definition, MBC/MIC ≤ 4 bactericidal): bactericidal
  MBC increase over MIC values: 2–4 fold
